Results taken from US20230053540A1, “TREATMENT OF LIVER INJURY” (Massachusetts Institute of Technology, priority 2019, published 2023).

Tested on: hepatocytes
Experiment: Seq-Well scRNA-Seq of hepatocytes after APAP overdose (signature scores, DEG vs untreated)
Type: in vivo, mouse
[1] = cluster A6, DEG between treatment (APAP and PH)

## CC(=O)Nc1ccc(O)cc1 [APAP, acetaminophen]
[1]
  avg_logFC Tmsb4x: 0.7911
  avg_logFC Tnfrsf1a: 0.5681
  avg_logFC Tnfrsf12a: 1.105
  avg_logFC Tns1: 0.4001
  avg_logFC Tra2a: 0.7081
  avg_logFC Trp53inp1: 0.8829
  avg_logFC Tsc22d2: 0.3629
  avg_logFC Tsku: 0.3332
  avg_logFC Tsr1: 0.3392
  avg_logFC Tubb2a: 0.786
  avg_logFC Tubb6: 0.5715
  avg_logFC Txnrd1: 1.375
  avg_logFC Ugdh: 0.6085
  avg_logFC Wbp1l: 0.3897
  avg_logFC Wdr43: 0.3083
  avg_logFC Xbp1: 0.5694
  avg_logFC Ywhag: 0.5132
  avg_logFC Zyx: 0.2799
  avg_logFC mmu-mir-6240: 1.032
  avg_logFC n-R5-8s1: 0.4005
Cluster A24 (APAP, 24 h)
  avg_logFC Acly: 0.3005
  avg_logFC Arcn1: 0.2594
  avg_logFC Cltc: 0.2853
  avg_logFC Cmah: 0.2958
  avg_logFC Ctnnb1: 0.25
  avg_logFC Dnajb11: 0.2998
  avg_logFC Dnajc12: 0.2565
  avg_logFC Etnk1: 0.2761
  avg_logFC Fndc3b: 0.2502
  avg_logFC Gm26917: 0.5819
  avg_logFC Magt1: 0.253
  avg_logFC Nab1: 0.2534
  avg_logFC Nars: 0.2657
  avg_logFC Nedd4: 0.2553
  avg_logFC Ptprf: 0.2512
  avg_logFC Rab1: 0.2582
  avg_logFC Sec61b: 0.2648
  avg_logFC Srebf1: 0.2874
  avg_logFC Usp4: 0.2727
  avg_logFC Usp9x: 0.2853
Cluster A48 (APAP, 48 h)
  avg_logFC 1-Mar: 0.2986
  avg_logFC 0610005C13Rik: 0.3977
  avg_logFC 1600002H07Rik: 0.2939
  avg_logFC Abcb4: 0.4702
  avg_logFC Abcc3: 0.4075
  avg_logFC Abcd2: 0.2906
  avg_logFC Abhd14b: 0.4104
  avg_logFC Acadl1: 0.3879
  avg_logFC Acat1: 0.3773
  avg_logFC Acbd5: 0.3517
  avg_logFC Aco2: 0.3054
  avg_logFC Acot12: 0.3091
  avg_logFC Acsl1: 0.3668
  avg_logFC Agt: 0.5339
  avg_logFC Ahcy: 0.4739
  avg_logFC Ahsg: 0.2506
  avg_logFC Akr1c19: 0.3705
  avg_logFC Aldh9a1: 0.4147
  avg_logFC Aldoa: 0.2635
  avg_logFC Aldob: 0.3758
  avg_logFC Amy1: 0.495
  avg_logFC Anapc13: 0.2762
  avg_logFC Angptl3: 0.7705
  avg_logFC Apoa5: 0.4366
  avg_logFC Apoc1: 0.3638
  avg_logFC Apoc2: 0.8142
  avg_logFC Apoc3: 0.3634
  avg_logFC Apoc4: 0.5053
  avg_logFC Apoe: 0.6102
  avg_logFC Apoh: 0.5359
  avg_logFC Armc1: 0.2587
  avg_logFC Asgr2: 0.3431
  avg_logFC Aspdh: 0.326
  avg_logFC Atf5: 0.3544
  avg_logFC Atp5b: 0.3451
  avg_logFC Atp5g3: 0.3996
  avg_logFC Atp5j: 0.4575
  avg_logFC Atp5k: 0.4074
  avg_logFC Atp5h: 0.7312
  avg_logFC Azgp1: 0.2836
  avg_logFC Bfar: 0.3018
  avg_logFC Bnip3: 0.5262
  avg_logFC Brap: 0.3395
  avg_logFC Camk2n1: 0.2578
  avg_logFC Cd1d1: 0.3518
  avg_logFC Cdo1: 0.4301
  avg_logFC Cebpb: 0.4231
  avg_logFC Ces1b: 0.5308
  avg_logFC Ces1c: 0.5861
  avg_logFC Ces1f: 0.3532
  avg_logFC Ces2a: 0.3404
  avg_logFC Ces1d: 0.3324
  avg_logFC Chchd10: 0.814
  avg_logFC Cox5a: 0.4303
  avg_logFC Cox8a: 0.5202
  avg_logFC Cp: 0.2715
  avg_logFC Cpt2: 0.3214
  avg_logFC Creb3l3: 0.3228
  avg_logFC Creg1: 0.418
  avg_logFC Ctsd: 0.3237
  avg_logFC Ctsh: 0.4649
  avg_logFC Cyp4a10: 1.157
  avg_logFC Cyp4a14: 1.488
  avg_logFC Dbp: 0.2929
  avg_logFC Dcxr: 0.3518
  avg_logFC Ddb1: 0.3373
  avg_logFC Decr1: 0.5941
  avg_logFC Decr2: 0.4308
  avg_logFC Dhrs4: 0.342
  avg_logFC Ech1: 0.5251
  avg_logFC Echs1: 0.4926
  avg_logFC Eef1d: 0.2745
  avg_logFC Ephx2: 0.4864
  avg_logFC Esrra: 0.2518
  avg_logFC Etfb: 0.3542
  avg_logFC Etnppl: 0.6045
  avg_logFC F2: 0.3767
  avg_logFC F10: 0.3879
  avg_logFC F12: 0.385
  avg_logFC Fah: 0.3039
  avg_logFC Fam195a: 0.3544
  avg_logFC Fcgrt: 0.4314
  avg_logFC Fth1: 0.4342
  avg_logFC G0s2: 0.4232
  avg_logFC Gabarap: 0.4376
  avg_logFC Galk1: 0.2686
  avg_logFC Gcdh: 0.306
  avg_logFC Gchfr: 0.3676
  avg_logFC Ggnbp2: 0.2821
  avg_logFC Glrx5: 0.3308
  avg_logFC Gltscr2: 0.3759
  avg_logFC Gm6484: 0.3759
  avg_logFC Gsta2: 0.2734
  avg_logFC Gsto1: 0.3392
  avg_logFC Gstt2: 0.3234
  avg_logFC Gstt3: 0.3834
  avg_logFC Gys2: 0.4182
  avg_logFC Hdac11: 0.3963
  avg_logFC Herpud1: 0.5965
  avg_logFC Hmgcl: 0.619
  avg_logFC Hmgcs2: 0.8196
  avg_logFC Hrg: 0.436
  avg_logFC Hsd17b10: 0.4452
  avg_logFC Hsd17b13: 0.6427
  avg_logFC Ifnar2: 0.2833
  avg_logFC Khk: 0.5338
  avg_logFC Lamp1: 0.3377
  avg_logFC Lcat: 0.4733
  avg_logFC Lims2: 0.3931
  avg_logFC Lipa: 0.3277
  avg_logFC Mat1a: 0.6585
  avg_logFC Mfsd2a: 0.5827
  avg_logFC Mgll: 0.3192
  avg_logFC Mia3: 0.3374
  avg_logFC Mlycd: 0.4637
  avg_logFC Mrpl43: 0.2692
  avg_logFC Ndrg2: 0.3498
  avg_logFC Ndufb2: 0.407
  avg_logFC Ndufb10: 0.3471
  avg_logFC Ndufs7: 0.2882
  avg_logFC Ninj1: 0.3542
  avg_logFC Nr1i3: 0.5739
  avg_logFC Oaf: 0.5619
  avg_logFC Pabpc1: 0.5116
  avg_logFC Park7: 0.403
  avg_logFC Pbld1: 0.3989
  avg_logFC Pbld2: 0.3619
  avg_logFC Pigr: 0.4224
  avg_logFC Pitpnb: 0.2726
  avg_logFC Plin5: 0.3264
  avg_logFC Pnpla2: 0.3457
  avg_logFC Ppara: 0.3442
  avg_logFC Prodh2: 0.5179
  avg_logFC Rabac1: 0.3343
  avg_logFC Rbp4: 0.5139
  avg_logFC Rdh7: 0.5575
  avg_logFC Reep6: 0.5902
  avg_logFC Retsat: 0.8734
  avg_logFC Rgs16: 0.3803
  avg_logFC Rpl4: 0.3744
  avg_logFC Rpl38: 0.3455
  avg_logFC Scand1: 0.2581
  avg_logFC Sco2: 0.317
  avg_logFC Sdhc: 0.4334
  avg_logFC Sdhd: 0.4849
  avg_logFC Sec14l2: 0.389
  avg_logFC Serpina1d: 0.3563
  avg_logFC Serpinf1: 0.3954
  avg_logFC Serping1: 0.4435
  avg_logFC Sh3glb1: 0.3259
  avg_logFC Shmt1: 0.3827
  avg_logFC Slc10a1: 0.4562
  avg_logFC Slc25a10: 0.4539
  avg_logFC Slc25a20: 0.4208
  avg_logFC Slc25a47: 0.5249
  avg_logFC Slc27a2: 0.3146
  avg_logFC Slc27a5: 0.41
  avg_logFC Slc37a4: 0.4211
  avg_logFC Slc40a1: 0.332
  avg_logFC Slco1a4: 0.5466
  avg_logFC Smlr1: 0.3065
  avg_logFC Snord118: 0.5286
